Test results: patent US10766864B2, “Morphinan derivatives for the treatment of neuropathic pain” (Nektar Therapeutics, priority 2015, dated 2020)
Like-named read-outs stand apart in the source and are kept apart here.

Columns and labels:
mu opioid receptor (MOR) = mu opioid receptor (MOR) (Homo sapiens (Human), UniProt P35372); experiment: Competitive radioligand binding at MOR ([3H] Naloxone)
Method: (§1) Receptor Binding at MOR and NMDA.
(§2) Affinities of various compounds were measured in vitro using competitive radioligand binding assays. Serial dilutions of test compounds were incubated with membranes prepared from CHO-K1 cells expressing the mu opioid receptor (MOR; for opioid receptor binding) or rat forebrain membranes (for NMDA receptor binding). 2 nM [^3H] Naloxone (MOR) or 0.2 nM [^3H] MK801 (NMDA) were used as the specific, competitive radioligands. 10 uM Naloxone (MOR), or 10 uM MK801 (NMDA) was used to determine non-specific binding. Bound radioactivity was measured using a scintillation counter & IC50 values for test compounds were determined by non-linear regression analysis using a one-site competition model (Graph Pad Prizm). Due to each test compound being solubilized in a buffered system for the assay, the results presented herein reflect the free base activity.

NMDA receptor = experiment: Competitive radioligand binding at NMDA receptor ([3H] MK801), rat forebrain membranes; conditions: 0.2 nM [3H] MK801, reflects free base activity
Method: as §1, §2

hMOR = hMOR (Homo sapiens (Human), UniProt P35372); experiment: cAMP accumulation assay (inhibition of forskolin-stimulated cAMP) in CHO-K1 cells stably expressing hMOR; type: cell-based
Method: Mu opioid agonist activity for selected compounds was determined by the inhibition of forskolin-stimulated cAMP accumulation following MOR activation in CHO-K1 cells stably expressing the hMOR. […] IC50 values were calculated from […] analysis of the concentration-response curves using Graph Pad Prizm.

[1] = membranes from CHO-K1 cells expressing MOR, 2 nM [3H] Naloxone, reflects free base activity, read-out: MOR IC50

SMILES: COCCNC(=O)Nc1nc2cc3c(cc2s1)C[C@@H]1[C@@H]2CCCC[C@]32CCN1C [Compound 72, 1-(2-methoxyethyl)-3-((4aR,5R,11bR)-14-methyl-2,3,4,4a,5,6-hexahydro-1H-5,11b-(epiminoethano)phenanthro[3,2-d]thiazol-9-yl)urea]
- IC50 (mu opioid receptor (MOR); [1]): > 1 µM
- IC50 (NMDA receptor): > 10 µM

SMILES: COCCOc1ccc2c(c1)[C@]13CCN(C)[C@H](C2)[C@@H]1CCC(=O)C3 [Compound 7, 3-(2-methoxyethoxy)-17-methylmorphinan-6-one]
- IC50 (mu opioid receptor (MOR)): 0.1 to 1 µM
- IC50 (hMOR): 0.1 to 1 µM
- IC50 (NMDA receptor): > 10 µM

SMILES: COCCOCCNC(=O)c1ccc2c(c1)[C@@]13CCCC[C@H]1[C@@H](C2)N(C)CC3 [Compound 39, N-[2-(2-methoxyethoxy)ethyl]-17-methylmorphinan-3-carboxamide]
- IC50 (mu opioid receptor (MOR)): 0.1 to 1 µM
- IC50 (NMDA receptor): > 10 µM

SMILES: CN1CC[C@]23CCCC[C@H]2[C@H]1Cc1ccc(-c2cn[nH]c2)cc13 [Compound 44, 17-methyl-3-(1H-pyrazol-4-yl)morphinan]
- IC50 (mu opioid receptor (MOR)): 0.01 to 0.1 µM
- IC50 (hMOR): 0.01 to 0.1 µM
- IC50 (NMDA receptor): 0.1 to 1 µM

SMILES: COCCOc1cc2c(cc1O)[C@@]13CCCCC1[C@@H](C2)N(C)CC3 (stereo partly drawn) [Compound 73, 2-(2-methoxyethoxy)-17-methylmorphinan-3-ol]
- IC50 (mu opioid receptor (MOR)): 0.1 to 1 µM
- IC50 (NMDA receptor): 1 to 10 µM

SMILES: COCCN1CC[C@]23CCCC[C@H]2[C@H]1Cc1ccc(Nc2cccnc2)cc13 [Compound 86, 17-(2-methoxyethyl)-N-(pyridin-3-yl)morphinan-3-amine]
- IC50 (mu opioid receptor (MOR)): 0.0001 to 0.01 µM
- IC50 (NMDA receptor): 1 to 10 µM

SMILES: COCCOCCOCC(=O)Nc1ccc2c(c1)[C@@]13CCCC[C@H]1[C@@H](C2)N(C)CC3 [Compound 33, 2-[2-(2-methoxyethoxy)ethoxy]-N-(17-methylmorphinan-3-yl)acetamide]
- IC50 (mu opioid receptor (MOR)): 0.1 to 1 µM
- IC50 (hMOR): 0.1 to 1 µM
- IC50 (NMDA receptor): > 10 µM

SMILES: CN1CC[C@]23CCCC[C@H]2[C@H]1Cc1ccc(Nc2cccnc2)cc13 [Compound 43, 17-methyl-N-(pyridin-3-yl)morphinan-3-amine]
- IC50 (mu opioid receptor (MOR)): 0.0001 to 0.01 µM
- IC50 (hMOR): 0.0001 to 0.01 µM
- IC50 (NMDA receptor): 0.0001 to 0.1 µM

SMILES: CN1CC[C@]23CCCC[C@H]2[C@H]1Cc1ccc(NS(C)(=O)=O)cc13 [Compound 37, N-(17-methylmorphinan-3-yl)methanesulfonamide]
- IC50 (mu opioid receptor (MOR)): 0.1 to 1 µM
- IC50 (NMDA receptor): 1 to 10 µM

SMILES: CN1CC[C@]23CCCC[C@H]2[C@H]1Cc1ccc(Nc2ccncc2)cc13 [Compound 49, 17-methyl-N-(pyridin-4-yl)morphinan-3-amine]
- IC50 (mu opioid receptor (MOR)): 0.1 to 1 µM
- IC50 (NMDA receptor): 0.0001 to 0.1 µM

SMILES: COCCOCCOCCOCCOCCOc1ccc(Nc2ccc3c(c2)[C@@]24CCCC[C@H]2[C@@H](C3)N(C)CC4)cn1 [Compound 64, 17-methyl-N-[6-(2,5,8,11,14-pentaoxahexadecan-16-yloxy)pyridin-3-yl]morphinan-3-amine]
- IC50 (mu opioid receptor (MOR); [1]): 0.01 to 0.1 µM
- IC50 (NMDA receptor): > 10 µM

SMILES: COCCOCCN1CC[C@]23CCCC[C@H]2[C@H]1Cc1ccc(OC)cc13 [Compound 12, 3-methoxy-17-[2-(2-methoxyethoxy)ethyl]-morphinan]
- IC50 (mu opioid receptor (MOR); [1]): > 1 µM
- IC50 (hMOR; hMOR-expressing CHO-K1 cells, 10 μM forskolin, 60 minute incubation, read-out: MOR cAMP IC50): > 1 µM
- IC50 (NMDA receptor): > 10 µM

SMILES: COCCN1CC[C@]23CCCC[C@H]2[C@H]1Cc1ccc(OC)cc13 [Compound 11, 3-methoxy-17-(2-methoxyethyl)-morphinan]
- IC50 (mu opioid receptor (MOR)): 0.1 to 1 µM
- IC50 (NMDA receptor): 1 to 10 µM

SMILES: COCCNc1ccc2c(c1)[C@@]13CCCC[C@H]1[C@@H](C2)N(C)CC3 [Compound 59, N-(2-methoxyethyl)-17-methylmorphinan-3-amine]
- IC50 (mu opioid receptor (MOR)): 0.1 to 1 µM
- IC50 (NMDA receptor): 1 to 10 µM

SMILES: CN1CC[C@]23CCCC[C@H]2[C@H]1Cc1cc(C#N)c(N)cc13 [Compound 103, 3-amino-17-methylmorphinan-2-carbonitrile]
- IC50 (mu opioid receptor (MOR); [1]): > 1 µM
- IC50 (NMDA receptor): > 10 µM

SMILES: CN1CC[C@]23CCCC[C@H]2[C@H]1Cc1ccc(Nc2ccccn2)cc13 [Compound 63, 17-methyl-N-(pyridin-2-yl)morphinan-3-amine]
- IC50 (mu opioid receptor (MOR)): 0.1 to 1 µM
- IC50 (NMDA receptor): 0.1 to 1 µM

SMILES: COc1ccc(NC(=O)Nc2ccc3c(c2)[C@@]24CCCC[C@H]2[C@@H](C3)N(C)CC4)cc1 [Compound 27, 1-(4-methoxyphenyl)-3-(17-methylmorphinan-3-yl)urea]
- IC50 (mu opioid receptor (MOR)): 0.01 to 0.1 µM
- IC50 (NMDA receptor): 1 to 10 µM
